From patent US20250228794A1, “HOMOVANILLYL ALCOHOL (HVA), HVA ISOMER, METHODS OF MAKING COMPOSITIONS COMPRISING SUCH COMPOUNDS, AND METHODS USING SUCH COMPOUNDS” (SOCIETE DES PRODUITS NESTLE S.A., priority 2017, published 2025)
One block for each compound: values may come before it.

Columns and labels:
[1] = Urinary excretion of oleuropein metabolites after intake of olive leaf extract (pilot study, LC-MS)
Method: Specifically, urine samples were enzymatically treated to hydrolyze the glucuronide and sulfate moieties and release the free forms which were quantified. After sample purification by liquid-liquid extraction, the chromatographic separation was operated on an Acquity™ UPLC® BEH C18 column (1.7 μm, 2.1×150 mm). The mobile phase consisted of 1 mmol/L ammonium acetate buffer and methanol under gradient conditions at a flow-rate of 0.25 mL/min. Hydroxytyrosol, homovanillyl alcohol, and the homovanillyl alcohol isomer 3-hydroxy-4-methoxyphenethanol (alternatively named 3-hydroxy-4-methoxyphenethyl alcohol) were identified and quantified by high performance liquid chromatography-electrospray ionization tandem mass spectrometry (HPLC-ESI-MS/MS) and by comparison with their corresponding chemically synthesized standards.
The circulating concentration and kinetics of absorption of phenolic compounds and their metabolites in biological fluids (plasma or urine) depends on the matrix in which the compounds are ingested, the dose ingested, the time point of sample collection, the microflora of each individual, and the metabolism of each individual. To develop the most appropriate analytical approach for the measurement of OE absorption, a pilot study was conducted. Specifically, five subjects collected urine at baseline (before intake of the olive leaf extract) and between the intakes of two capsules of the olive leaf extract.
The analytical method (sample preparation, deconjugation conditions, chromatographic detection and separation) was first developed by spiking chemical standards which were commercially available in commercial urine. The deconjugation conditions were determined by using the conjugates available, hydroxytyrosol sulfate and homovanillyl alcohol glucuronide. The commercially available chemical standards were 3,4-Dihydroxybenzoic acid; 3,4-Dihydroxyphenylacetic acid; Homovanillic acid; Homovanillyl alcohol; Homovanillyl alcohol glucuronide (vanillyl methanol glucuronide); Hydroxytyrosol; Hydroxytyrosol sulfate (hydroxytyrosol sulfate triethylammonium salt); and Vanillic acid.
Briefly, the sample preparation consisted of a liquid-liquid extraction with ethyl acetate after a protein precipitation using acidified methanol.
Regarding chromatographic analysis, Oleuropein metabolites were separated by reversed-phase ultra-performance liquid chromatography using a C18-column Acquity UPLC BEH C18 1.7 μm, 2.1 mm×150 mm, (Waters AG, Switzerland). The system consisted of a LC system Acquity™ UPLC® (Waters AG, Switzerland) coupled with a Qtrap 5500 Mass spectrometer detector equipped with an electrospray ionization source (ABSciex, Switzerland). Detection was performed in the negative operating mode at unit resolution.
Specifically, a preliminary analysis of the urine samples collected after intake of the olive leaf extract was performed by electrospray ionization (ESI) in the negative ion mode, scanning for the different [M−H]^− ions at the theoretical m/z of the expected oleuropein metabolites and conjugates (Table 1).
Relative amount of the metabolites identified was first evaluated to clarify if their excretion in urine was increasing after intake of the olive leaf extract. This evaluation was based on the measurement of the area under the corresponding chromatographic peak, which reflects the amount.

[2] = system: inducible isoform of nitric oxide synthase (iNOS); assay: iNOS gene expression in chondrocytes (anti-inflammatory effect); assay type: cell-based; conditions: FIG. 17A
Description: (§1) Chondrocytes in alginate beads were subjected to a two-hour polyphenols pre-treatment followed by a twenty-four hour IL1-α stimulation.
(§2) Then the anti-inflammatory effect of oleuropein metabolites in chondrocytes was studied.
Regarding FIG. 17A, the inducible isoform of nitric oxide synthase (iNOS) is an inflammation-related gene linked to NO production.

inflamed chondrocytes [3] = assay: Collagen in culture media of inflamed chondrocytes (catabolism); assay type: cell-based; conditions: FIG. 18B
Description: as §1
(§3) Next it was shown that oleuropein metabolites prevent collagen breakdown in inflamed chondrocytes (FIGS. 18A and 18B). In this regard, collagen in extra-cellular matrix corresponds to the collagen synthesized by the cells, i.e., anabolism. […] Collagen in culture media corresponds to the collagen degraded by cells and released in the media, i.e., […].

chondrocytes = assay: Effects of oleuropein metabolites on chondrocytes (overall); assay type: cell-based; conditions: synthetic form; comparison with hydroxytyrosol
Method: As also set forth in detail later herein, several metabolites of oleuropein were tested for their effects on chondrocytes.
as §1

Collagen-II = Collagen-II gene expression in chondrocytes in alginate beads, IL1-α stimulation; assay type: cell-based; conditions: two-hour pre-treatment, twenty-four hour IL1-α stimulation; polyphenols at 10 μM; FIG. 16A
Description: as §1
Regarding FIG. 16A, Collagen-II is an anabolism-related gene for major structural components of the extracellular matrix of joints.

cyclooxygenase-2 (COX-2) = assay: COX-2 gene expression in chondrocytes (anti-inflammatory effect); assay type: cell-based; conditions: FIG. 17B
Method: as §1, §2
Regarding FIG. 17B, cyclooxygenase-2 (COX-2) is another inflammation-related gene. It is linked to the Prostaglandin E2 (PGE2) pathway. OLP, EA and HVOH were efficient at 2 μM. OLP, OEA and HVOH were efficient at 10 μM.

inflamed chondrocytes [4] = assay: Collagen in extra-cellular matrix of inflamed chondrocytes (anabolism); assay type: cell-based; conditions: FIG. 18A
Description: as §1, §3

[5] = urine after intake of olive leaf extract, LC-MS, MS2/MS3

change of amount in urine (area under the peak) after intake of olive leaf extract versus basal ([1]; in vivo): do not increase
Compound: O=C(O)Cc1ccc(O)c(O)c1 [3,4-dihydroxyphenylacetic acid, 3,4-Dihydroxyphenylacetic acid]
detection and identification in urine ([1]; in vivo): detected in samples after intake of the olive leaf extract and in basal samples

Number of forms confirmed in urine ([1]; human, in vivo): 2 | detection and identification in urine ([1]; in vivo): Presence & identity confirmed | form excreted in urine ([1]; in vivo): mainly as conjugated form | COX-2 gene expression (cyclooxygenase-2 (COX-2); 2 μM): efficient | COX-2 gene expression (cyclooxygenase-2 (COX-2); 10 μM): efficient
Compound: COc1cc(CCO)ccc1O [homovanillyl alcohol]
change of amount in urine (area under the peak) after intake of olive leaf extract versus basal ([1]; in vivo): specifically increase after intake of olive leaf extract | collagen in culture media (collagen degraded and released, catabolism) (inflamed chondrocytes [3]): potent anti-breakdown effect (improved over control) | effects on chondrocytes (chondrocytes): more effective than hydroxytyrosol

Number of forms confirmed in urine ([1]; human, in vivo): 1 | average of the area under the chromatographic peak in urine ([1]; human, in vivo): 7.7×10^6 | detection and identification in urine ([1]; in vivo): Presence & identity confirmed | form excreted in urine ([1]; in vivo): mainly as conjugated form | relative abundance excreted in urine ([1]; in vivo): more abundant than HVOH
Compound: OCCc1ccc(O)c(O)c1 [hydroxytyrosol, 3,4-dihydroxyphenylethanol, reference compound]
change of amount in urine (area under the peak) after intake of olive leaf extract versus basal ([1]; in vivo): specifically increase after intake of olive leaf extract

Number of forms confirmed in urine ([1]; in vivo): 1 | average of the area under the chromatographic peak in urine ([1]; in vivo): 2×10^6 | COX-2 gene expression (cyclooxygenase-2 (COX-2); 10 μM): efficient
Compound: CC=C1C(O)OC=C(C(=O)OC)C1CC(=O)OCCc1ccc(O)c(O)c1 (stereo not drawn) [oleuropein aglycone, 3,4-dihydroxyphenylethanol-elenolic acid]
collagen in extra-cellular matrix (collagen synthesized by the cells, anabolism) (inflamed chondrocytes [4]): protective effect

COX-2 gene expression (cyclooxygenase-2 (COX-2); 2 μM): efficient
Compound: Elenolic acid [EA]
detection and identification in urine ([1]; in vivo): none of them could be confirmed as being EA | collagen in culture media (collagen degraded and released, catabolism) (inflamed chondrocytes [3]): potent anti-breakdown effect (improved over control)

detection and identification in urine ([1]; in vivo): Not detected
Compound: Methylated oleuropein aglycone

Number of forms confirmed in urine ([1]; in vivo): 2 | detection and identification in urine ([1]; in vivo): Presence & identity confirmed
Compound: Oleuropein aglycone glucuronide

Number of forms confirmed in urine ([1]; in vivo): 1
Compound: Oleuropein aglycone sulfate

The remaining lines, values behind:

Compound: O=C(O)c1ccc(O)c(O)c1 [3,4-dihydroxybenzoic acid]
change of amount in urine (area under the peak) after intake of olive leaf extract versus basal ([1]; in vivo): do not increase | detection and identification in urine ([1]; in vivo): detected in samples after intake of the olive leaf extract and in basal samples

Compound: COc1cc(CCO)ccc1O[C@@H]1O[C@H](C(=O)O)[C@@H](O)[C@H](O)[C@H]1O [Homovanillyl alcohol glucuronide]
Number of forms confirmed in urine ([1]; in vivo): 1 | detection and identification in urine ([1]; in vivo): Presence & identity confirmed

Compound: COc1cc(CC(=O)O)ccc1O [homovanillic acid, Homovanillic acid]
change of amount in urine (area under the peak) after intake of olive leaf extract versus basal ([1]; FIG. 15, subjects 1 to 5): do not increase

Compound: COc1ccc(CCO)cc1O [homovanillyl alcohol isomer, 3-hydroxy-4-methoxyphenethanol]
iNOS gene expression (protective effect) ([2]; 2 μM): significant effect | iNOS gene expression (protective effect) ([2]; 10 μM): significant effect | collagen in culture media (collagen degraded and released, catabolism) (inflamed chondrocytes [3]): potent anti-breakdown effect (improved over control) | effects on chondrocytes (chondrocytes): more effective than hydroxytyrosol | Collagen-II gene expression (protective effect) (Collagen-II): significant effect

Compound: COc1cc(C(=O)O)ccc1O [vanillic acid, Vanillic acid]
change of amount in urine (area under the peak) after intake of olive leaf extract versus basal ([1]; human, in vivo): strongly increases in urine of subjects 2 and 4, but not as much in subjects 1, 3 and 5 | detection and identification in urine [1, 5]: detected in samples after intake of the olive leaf extract and in basal samples

Compound: Elenolic acid sulfate [EA-S]
detection and identification in urine ([1]; in vivo): Neither ion of elenolic acid sulfate nor of elenolic acid glucuronide (EA-S or EA-G) could be detected

Compound: Hydroxytyrosol sulfate
Number of forms confirmed in urine ([1]; urine after intake of olive leaf extract): 1 | detection and identification in urine [1, 5]: Presence & identity confirmed
